Laboratory results reported in ChEMBL document CHEMBL5724914, “Linking interpersonal differences in gut microbiota composition and drug biotransformation activity” (2024).

Legend:
[1] = (§1) The drug is tested on Z-030 corresponding to mouse gut metagenome with ENA study accession number: PRJEB37062 and ENA sample accession number: ERS12561829 for biotransformation under anaerobic condition. The drug concentrations were measured over 9 timepoints collected between 0 and 24 hours of incubation by liquid-chromatography-coupled mass spectrometry (LC–MS); details: 2 µM
[2] = as §1, with “Z-026” for “Z-030”, “to” for “to mouse gut”, “ERS12561825” for “ERS12561829”; details: 2 µM
[3] = as §1, with “Z-014” for “Z-030”, “rat” for “mouse”, “ERS12561814” for “ERS12561829”; details: 2 µM
[4] = as §1, with “Z-001” for “Z-030”, “ERS12561801” for “ERS12561829”; details: 2 µM
[5] = as §1, with “WLS-370” for “Z-030”, “human” for “mouse”, “ERS12561793” for “ERS12561829”; details: 2 µM
[6] = as §1, with “WLS-310” for “Z-030”, “human” for “mouse”, “ERS12561785” for “ERS12561829”; details: 2 µM
[7] = as §1, with “WLS-077” for “Z-030”, “human” for “mouse”, “ERS12561750” for “ERS12561829”; details: 2 µM
[8] = as §1, with “WLS-073” for “Z-030”, “human” for “mouse”, “ERS12561749” for “ERS12561829”; details: 2 µM
[9] = as §1, with “WLS-052” for “Z-030”, “human” for “mouse”, “ERS12561747” for “ERS12561829”; details: 2 µM
[10] = human gut metagenome, 24 h, 2 µM
[11] = human gut metagenome, 24 h, 2 µM; remark: listed apart in the source
[12] = human gut metagenome, 24 h, 2 µM; remark: listed apart in the source
[13] = human gut metagenome, 24 h, 2 µM; remark: listed apart in the source
[14] = human gut metagenome, 24 h, 2 µM; remark: listed apart in the source
[15] = human gut metagenome, 24 h, 2 µM; remark: listed apart in the source
[16] = human gut metagenome, 24 h, 2 µM; remark: listed apart in the source
[17] = human gut metagenome, 24 h, 2 µM; remark: listed apart in the source
[18] = human gut metagenome, 24 h, 2 µM; remark: listed apart in the source
[19] = human gut metagenome, 24 h, 2 µM; remark: listed apart in the source
[20] = human gut metagenome, 24 h, 2 µM; remark: listed apart in the source
Also: call rule not given here.

Row | Bacterial Biotransformation [1] | Bacterial Biotransformation [2] | Bacterial Biotransformation [3] | Bacterial Biotransformation [4] | Bacterial Biotransformation [5] | Bacterial Biotransformation [6] | Bacterial Biotransformation [7] | Bacterial Biotransformation [8] | Bacterial Biotransformation [9] | Bacterial Biotransformation [10] | Bacterial Biotransformation [11] | Bacterial Biotransformation [12] | Bacterial Biotransformation [13] | Bacterial Biotransformation [14] | Bacterial Biotransformation [15] | Bacterial Biotransformation [16] | Bacterial Biotransformation [17] | Bacterial Biotransformation [18] | Bacterial Biotransformation [19] | Bacterial Biotransformation [20] | Compound
1 | Compound NOT metabolized | Compound NOT metabolized | Compound NOT metabolized | Compound NOT metabolized | Compound metabolized | Compound metabolized | Compound NOT metabolized | Compound metabolized | Compound NOT metabolized | Compound NOT metabolized | Compound NOT metabolized | Compound metabolized | Compound metabolized | Compound metabolized | Compound NOT metabolized | Compound metabolized | Compound NOT metabolized | Compound NOT metabolized | Compound NOT metabolized | Compound NOT metabolized | COc1cc2nc(N3CCN(C(=O)c4ccco4)CC3)nc(N)c2cc1OC [PRAZOSIN]
2 | Compound NOT metabolized | Compound NOT metabolized | Compound NOT metabolized | Compound NOT metabolized | Compound NOT metabolized | Compound metabolized | Compound NOT metabolized | Compound NOT metabolized | Compound NOT metabolized | Compound NOT metabolized | Compound NOT metabolized | Compound metabolized | Compound metabolized | Compound metabolized | Compound NOT metabolized | Compound NOT metabolized | Compound metabolized | Compound NOT metabolized | Compound NOT metabolized | Compound NOT metabolized | CS(=O)(=O)O.OC(CCN1CCCCC1)(c1ccccc1)c1ccccc1 [PRIDINOL METHANESULFONATE]
3 | Compound NOT metabolized | Compound NOT metabolized | Compound NOT metabolized | Compound NOT metabolized | Compound NOT metabolized | Compound metabolized | Compound NOT metabolized | Compound NOT metabolized | Compound NOT metabolized | Compound NOT metabolized | Compound NOT metabolized | Compound NOT metabolized | Compound metabolized | Compound metabolized | Compound NOT metabolized | Compound metabolized | Compound NOT metabolized | Compound metabolized | Compound NOT metabolized | Compound NOT metabolized | CC(CN1c2ccccc2Sc2ccccc21)N(C)C (stereo not given) [PROMETHAZINE]
4 | Compound NOT metabolized | Compound NOT metabolized | Compound NOT metabolized | Compound NOT metabolized | Compound metabolized | Compound NOT metabolized | Compound NOT metabolized | Compound NOT metabolized | Compound NOT metabolized | Compound NOT metabolized | Compound NOT metabolized | Compound metabolized | Compound NOT metabolized | Compound metabolized | Compound NOT metabolized | Compound metabolized | Compound metabolized | Compound NOT metabolized | Compound NOT metabolized | Compound NOT metabolized | OCCOCCN1CCN(C2=Nc3ccccc3Sc3ccccc32)CC1 [QUETIAPINE]
5 | Compound NOT metabolized | Compound NOT metabolized | Compound metabolized | Compound NOT metabolized | Compound metabolized | Compound metabolized | Compound metabolized | Compound NOT metabolized | Compound metabolized | Compound metabolized | Compound metabolized | Compound metabolized | Compound metabolized | Compound metabolized | Compound NOT metabolized | Compound NOT metabolized | Compound NOT metabolized | Compound metabolized | Compound metabolized | Compound metabolized | CCC(=O)NCC[C@@H]1CCc2ccc3c(c21)CCO3 [RAMELTEON]
6 | Compound NOT metabolized | Compound metabolized | Compound metabolized | Compound metabolized | Compound NOT metabolized | Compound metabolized | Compound NOT metabolized | Compound NOT metabolized | Compound NOT metabolized | Compound NOT metabolized | Compound metabolized | Compound NOT metabolized | Compound metabolized | Compound metabolized | Compound NOT metabolized | Compound metabolized | Compound NOT metabolized | Compound NOT metabolized | Compound metabolized | Compound metabolized | CNC(=C[N+](=O)[O-])NCCSCc1ccc(CN(C)C)o1 [RANITIDINE]
7 | Compound NOT metabolized | Compound NOT metabolized | Compound NOT metabolized | Compound NOT metabolized | Compound metabolized | Compound metabolized | Compound NOT metabolized | Compound NOT metabolized | Compound NOT metabolized | Compound NOT metabolized | Compound metabolized | Compound metabolized | Compound metabolized | Compound metabolized | Compound NOT metabolized | Compound metabolized | Compound NOT metabolized | Compound NOT metabolized | Compound metabolized | Compound metabolized | COC(=O)[C@H]1[C@H]2C[C@@H]3c4[nH]c5cc(OC)ccc5c4CCN3C[C@H]2C[C@@H](OC(=O)c2cc(OC)c(OC)c(OC)c2)[C@@H]1OC [RESERPINE]
